In brackets after ≈: the same amount, converted by molar mass.
Assays:
[1] = system: Aspergillus fumigatus; test: Fungicidal activity against Aspergillus fumigatus ATTC 26934 after 48 hrs; format: functional; conditions: ATTC 26934, 48 h
[2] = system: Candida albicans; test: Antifungal activity against Candida albicans; format: functional, organism-based
[3] = system: Candida parapsilosis; test: Antifungal activity against Candida parapsilosis; format: functional; conditions: Lodderomyces parapsilosis
[4] = system: Nakaseomyces glabratus; test: Antifungal activity against Candida glabrata 493 by microdilution method; format: functional
[5] = system: Nakaseomyces glabratus; test: Antifungal activity against Candida glabrata WT-5; format: functional
[6] = system: Candida tropicalis; test: Antifungal activity against Candida tropicalis 166 by microdilution method; format: functional
[7] = system: Nakaseomyces glabratus; test: Antifungal activity against Candida glabrata 482 by microdilution method; format: functional
[8] = system: Trichophyton mentagrophytes; test: Antifungal activity against Trichophyton mentagrophytes IFM 46027 by microdilution method; format: functional
[9] = system: Candida albicans; test: Antifungal activity against Candida albicans 53 by microdilution method; format: functional
[10] = system: Candida tropicalis; test: Antibiofilm activity against Candida tropicalis by CSLM based method; format: functional
[11] = system: Candida albicans; test: Antifungal activity against Candida albicans 501 by microdilution method; format: functional
[12] = system: Candida parapsilosis; test: Antifungal activity against Candida parapsilosis 90/2224; format: functional; conditions: Lodderomyces parapsilosis
[13] = system: Pichia kudriavzevii; test: Antifungal activity against Candida krusei CK25; format: functional
[14] = system: Pichia kudriavzevii; test: Antifungal activity against Candida krusei ATCC 6258; format: functional
[15] = system: Pichia kudriavzevii; test: Antifungal activity against Candida krusei; format: functional
[16] = system: Nakaseomyces glabratus; test: Antifungal activity against Candida glabrata 587 by microdilution method; format: functional
[17] = system: Candida albicans; test: Antibiofilm activity against Candida albicans by CSLM based method; format: functional
[18] = system: Candida albicans; test: Antifungal activity against Candida albicans ATCC 10231 by microdilution method; format: functional
[19] = system: Candida parapsilosis; test: Antifungal activity against Candida parapsilosis 96 by microdilution method; format: functional; conditions: Lodderomyces parapsilosis
[20] = system: Aspergillus fumigatus; test: Antifungal activity against Aspergillus fumigatus NBRC 4400 by microdilution method; format: functional
[21] = system: Candida albicans; test: Antifungal activity against Candida albicans NBRC 1385 by microdilution method; format: functional
[22] = system: Candida albicans; test: Antifungal activity against Candida albicans 498 by microdilution method; format: functional
[23] = system: Trichophyton rubrum; test: Antifungal activity against Trichophyton rubrum NBRC 5467 by microdilution method; format: functional
[24] = system: Candida parapsilosis; test: Antifungal activity against Candida parapsilosis ATCC 22014; format: functional; conditions: Lodderomyces parapsilosis
[25] = system: Nakaseomyces glabratus; test: Antifungal activity against Candida glabrata 531 by microdilution method; format: functional
[26] = system: Nakaseomyces glabratus; test: Antifungal activity against Candida glabrata; format: functional
[27] = system: Nakaseomyces glabratus; test: Antifungal activity against Candida glabrata 507 by microdilution method; format: functional
[28] = system: Candida albicans; test: Antifungal activity against FLC-resistant Candida albicans; format: functional
[29] = system: Nakaseomyces glabratus; test: Antifungal activity against Candida glabrata 510 by microdilution method; format: functional
[30] = system: Nakaseomyces glabratus; test: Antifungal activity against Candida glabrata ATCC 90030; format: functional
[31] = system: Pichia kudriavzevii; test: Antifungal activity against Candida krusei 168 by microdilution method; format: functional
[32] = system: Candida parapsilosis; test: Antifungal activity against Candida parapsilosis ATCC 22019 after 12 to 18 hrs by ELISA; format: functional; conditions: Lodderomyces parapsilosis
[33] = system: Malassezia furfur; test: Antifungal activity against Malassezia furfur KCTC 7744 after 12 to 18 hrs by ELISA; format: functional
[34] = system: Candida albicans; test: Antifungal activity against Candida albicans ATCC10231; format: functional; conditions: ATCC 10231
[35] = system: Trichosporon beigelii; test: Antifungal activity against Trichosporon beigelii KCTC 7707 after 12 to 18 hrs by ELISA; format: functional
[36] = system: Trichophyton rubrum; test: Antifungal activity against Trichophyton rubrum KCTC 6345 after 12 to 18 hrs by ELISA; format: functional
[37] = system: Candida albicans; test: Antifungal activity against Candida albicans ATCC10231 at 50 ug/ml relative to control; format: functional; conditions: ATCC 10231
[38] = system: Candida albicans; test: Antifungal activity against Candida albicans ATCC 90028 after 12 to 18 hrs by ELISA; format: functional
[39] = system: Candida albicans; test: Synergistic antifungal activity against Candida albicans by microbroth dilution method; format: functional
[40] = system: Aspergillus niger; test: Fungicidal activity against Aspergillus niger ATCC 9029 after 48 hrs; format: functional; conditions: ATCC 9029, 48 h
[41] = system: Aspergillus flavus; test: Fungicidal activity against Aspergillus flavus ATCC 9170 after 48 hrs; format: functional; conditions: ATCC 9170, 48 h
[42] = system: Saccharomyces cerevisiae; test: Fungicidal activity against Saccharomyces cerevisiae ATCC 9763 after 48 hrs; format: functional; conditions: ATCC 9763, 48 h
[43] = system: Nannizzia gypsea; test: Fungicidal activity against Microsporum gypseum CCC 115 after 48 hrs; format: functional; conditions: CCC 115, 48 h
[44] = system: Cryptococcus neoformans; test: Fungicidal activity against Cryptococcus neoformans ATCC 32264 after 48 hrs; format: functional; conditions: ATCC 32264, 48 h
[45] = system: Candida albicans; test: Fungicidal activity against Candida albicans ATCC 10231 after 48 hrs; format: functional; conditions: ATCC 10231, 48 h
[46] = system: Trichophyton mentagrophytes; test: Fungicidal activity against Trichophyton mentagrophytes ATCC 9972 after 48 hrs; format: functional; conditions: ATCC 9972, 48 h
[47] = system: Trichophyton rubrum; test: Fungicidal activity against Trichophyton rubrum CCC 110 after 48 hrs; format: functional; conditions: CCC 110, 48 h
[48] = system: Cryptococcus neoformans; test: Fungicidal activity against Cryptococcus neoformans clinical isolate after 48 hrs; format: functional

In the case of `O=c1c(O[C@@H]2O[C@@H](CO)[C@H](O)[C@H]2O)c(-c2ccc(O)c(O)c2)oc2cc(O)cc(O)c12` [AVICULARIN], the MIC [1] is reported as 2 to 16 µg/mL (≈ 4.6 to 36.8 µM), the MIC [2] is reported as 2 to 32 µg/mL (≈ 4.6 to 73.7 µM) and the MIC [3] is reported as 8 to 32 µg/mL (≈ 18.4 to 73.7 µM).

In the case of `O=c1cc(-c2ccccc2)oc2cc(O)c(O)c(O)c12` [BAICALEIN], the MIC [4] is reported as 1.9 µg/mL (≈ 7.03 µM), the MIC [5] is reported as 52.7 µg/mL (≈ 195 µM) and the MIC [6] is reported as 10.4 µg/mL (≈ 38.5 µM). It also gave an MIC50 [6] of 13 to 104 µg/mL (≈ 48.1 to 385 µM), an MIC [7] of 1.9 µg/mL (≈ 7.03 µM) and an MIC [8] of 60 µM (≈ 16.2 µg/mL). The MIC [9] was 10.4 µg/mL (≈ 38.5 µM), the MIC [2] was 5.4 µg/mL (≈ 20 µM) and the MIC [10] was 52 to 104 µg/mL (≈ 192 to 385 µM). For the same compound, the MIC [11] was 10.4 µg/mL (≈ 38.5 µM), the MIC [12] was 5.4 µg/mL (≈ 20 µM) and the MIC [13] was 2.7 µg/mL (≈ 9.99 µM). The MIC [14] was 2.7 µg/mL (≈ 9.99 µM), the MIC [15] was 2.7 µg/mL (≈ 9.99 µM) and the MIC [16] was 1.9 µg/mL (≈ 7.03 µM). It also gave an MIC50 [17] of 4 to 32 µg/mL (≈ 14.8 to 118 µM), an MIC [18] of 10.4 µg/mL (≈ 38.5 µM) and an MIC [19] of 5.2 to 13 µg/mL (≈ 19.2 to 48.1 µM). For the same compound, the MIC50 [19] was 13 to 104 µg/mL (≈ 48.1 to 385 µM), the MIC [20] was 230 µM (≈ 62.2 µg/mL) and the MIC [21] was 30 µM (≈ 8.11 µg/mL). For the same compound, the MIC [22] was 10.4 µg/mL (≈ 38.5 µM), the MIC [23] was 120 µM (≈ 32.4 µg/mL) and the MIC [3] was 5.4 µg/mL (≈ 20 µM). For the same compound, the MIC [24] was 5.4 µg/mL (≈ 20 µM), the MIC [25] was 1.9 µg/mL (≈ 7.03 µM) and the MIC [26] was 2.7 µg/mL (≈ 9.99 µM). For the same compound, the MIC [27] was 1.9 µg/mL (≈ 7.03 µM), the MIC [28] was 13 to 26 µg/mL (≈ 48.1 to 96.2 µM) and the MIC [29] was 1.9 µg/mL (≈ 7.03 µM). The MIC [30] was 52.7 µg/mL (≈ 195 µM) and the MIC [31] was 21 µg/mL (≈ 77.7 µM).

`O=c1cc(-c2ccc(O)cc2)oc2cc(O)cc(O)c12` [APIGENIN] gave an MIC [32] of 5 µg/mL (≈ 18.5 µM), an MIC [33] of 5 µg/mL (≈ 18.5 µM) and an MIC [34] of 125 µg/mL (≈ 463 µM). The MIC [35] was 5 µg/mL (≈ 18.5 µM), the MIC [36] was 5 µg/mL (≈ 18.5 µM) and the inhibition at 50 µg/mL [37] was 99.8%. The MIC [38] was 5 µg/mL (≈ 18.5 µM).

`C[C@@H]1O[C@@H](Oc2cc(O)c3c(=O)c(O)c(-c4ccc(O)c(O)c4)oc3c2)[C@H](O)[C@H](O)[C@H]1O` was tested, and the MIC [39] was > 64 µg/mL.

Compound `Cc1ccc(C(=O)/C=C/c2ccc(O)c(OCCCN(C)C)c2)cc1` has an MFC [40] of 62.5 µg/mL (≈ 184 µM), an MFC [1] of 62.5 µg/mL (≈ 184 µM) and an MFC [41] of 62.5 µg/mL (≈ 184 µM). For the same compound, the MFC [42] was 62.5 µg/mL (≈ 184 µM), the MFC [43] was 62.5 µg/mL (≈ 184 µM) and the MFC [44] was 62.5 µg/mL (≈ 184 µM). The MFC [45] was 62.5 µg/mL (≈ 184 µM), the MFC [46] was 62.5 µg/mL (≈ 184 µM) and the MFC [47] was 62.5 µg/mL (≈ 184 µM). For the same compound, the MFC [48] was 62.5 µg/mL (≈ 184 µM).

From ChEMBL document CHEMBL4311957, “Recent advances in natural antifungal flavonoids and their derivatives” (Bioorg Med Chem Lett, 2019)
